Consider 15 compounds from US6258811A, “Methods for preventing, inhibiting or treating graft rejection reactions in graft-versus-host disease (GVHD) and organ transplantation” (Eisai Co., Ltd., priority 1996, dated 2001).

Each structure is given as a SMILES string.

In data set [1] the test system is patients. Particulars: background; cited from earlier work.
Data set [2] has as its target T1, RAR-α (Homo sapiens, UniProt P10276).
T1 sequence (P10276 1-462): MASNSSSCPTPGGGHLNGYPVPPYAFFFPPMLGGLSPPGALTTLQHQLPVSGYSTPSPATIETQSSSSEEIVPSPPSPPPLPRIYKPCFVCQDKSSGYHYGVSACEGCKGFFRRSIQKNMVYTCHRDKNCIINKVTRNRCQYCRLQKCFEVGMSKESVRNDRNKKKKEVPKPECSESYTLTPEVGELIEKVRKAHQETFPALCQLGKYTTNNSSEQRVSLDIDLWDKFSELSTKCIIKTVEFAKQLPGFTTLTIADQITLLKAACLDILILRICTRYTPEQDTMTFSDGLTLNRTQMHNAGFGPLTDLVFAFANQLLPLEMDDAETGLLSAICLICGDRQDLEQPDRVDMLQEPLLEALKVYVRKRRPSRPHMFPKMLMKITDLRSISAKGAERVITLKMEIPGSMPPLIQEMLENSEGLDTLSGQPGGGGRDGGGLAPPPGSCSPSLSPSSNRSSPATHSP
Put plainly: RAR-mediated transcriptional promotion activity, RAR-α. The data set is classed as cell-based. The conditions noted are these: ED30 of all-trans-retinoic acid taken as 1; 3 μM all-trans-retinoic acid = 100%. The source says:
(§1) Retinoic acid receptor (RAR) binding assay and RAR-mediated transcriptional promotion activity of compound represented by formula (I): […]

The target of data set [3] is T2, RAR-β (Homo sapiens, UniProt P10826).
T2 sequence (P10826 1-455): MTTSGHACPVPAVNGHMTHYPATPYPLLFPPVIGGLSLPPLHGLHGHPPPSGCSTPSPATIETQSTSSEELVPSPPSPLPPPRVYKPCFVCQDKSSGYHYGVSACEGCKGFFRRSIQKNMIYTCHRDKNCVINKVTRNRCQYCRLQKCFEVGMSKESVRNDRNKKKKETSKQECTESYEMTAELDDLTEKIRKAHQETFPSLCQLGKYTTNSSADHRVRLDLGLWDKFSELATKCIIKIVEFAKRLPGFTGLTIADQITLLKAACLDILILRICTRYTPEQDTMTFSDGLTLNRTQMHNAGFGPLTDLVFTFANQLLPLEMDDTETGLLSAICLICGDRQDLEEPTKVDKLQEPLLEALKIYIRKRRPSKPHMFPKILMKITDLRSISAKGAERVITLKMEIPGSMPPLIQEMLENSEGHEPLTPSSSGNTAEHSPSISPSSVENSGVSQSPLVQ
The data set is described as follows: RAR-mediated transcriptional promotion activity, RAR-β. Type of data set: cell-based. Particulars: ED30 of all-trans-retinoic acid taken as 1; 3 μM all-trans-retinoic acid = 100%.
Description: as §1

Data set [4] deals with T3, RAR-γ (Homo sapiens, UniProt P13631).
T3 sequence (P13631 1-454): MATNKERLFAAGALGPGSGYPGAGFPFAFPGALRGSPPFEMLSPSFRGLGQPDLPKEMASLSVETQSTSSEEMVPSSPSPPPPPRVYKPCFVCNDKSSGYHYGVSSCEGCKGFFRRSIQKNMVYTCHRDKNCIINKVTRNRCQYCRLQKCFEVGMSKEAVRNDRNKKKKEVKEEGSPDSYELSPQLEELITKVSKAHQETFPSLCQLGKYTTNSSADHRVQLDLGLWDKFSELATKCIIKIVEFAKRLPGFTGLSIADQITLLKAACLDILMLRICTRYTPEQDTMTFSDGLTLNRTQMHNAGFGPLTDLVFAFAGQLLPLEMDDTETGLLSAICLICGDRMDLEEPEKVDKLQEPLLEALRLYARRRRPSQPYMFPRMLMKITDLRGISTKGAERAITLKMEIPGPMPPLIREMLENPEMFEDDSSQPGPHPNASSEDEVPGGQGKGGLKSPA
Put plainly: RAR-mediated transcriptional promotion activity, RAR-γ. Particulars: ED30 of all-trans-retinoic acid taken as 1; 3 μM all-trans-retinoic acid = 100%. The data set is classed as cell-based.
Description: as §1

Data set [5] deals with immune system. Particulars: background; cited from earlier work.
The test system of data set [6] is chronic GVHD. The conditions noted are these: cyclosporin A and prednisolone, bone marrow transplantation patients; cited from earlier work.
Data set [7] deals with T2, RAR-β. Put plainly: Receptor binding assay, RAR-β.
Description: as §1

In data set [8] the test system is P-815(H-2d). Put plainly: Acute GVHD model: cytotoxic T cell activity of donor on host. The data set is classed as in vivo, mice (BDF1 hosts, C57BL/6N donors). The conditions noted are these: oral, once a day, 12 to 13 days after cell transfer. From the text: (§2) A graft-versus-host disease (GVHD) model experiment was effected in accordance with the method reported by Durei et al. (J. Clin. Invest., 94, 1333 1994.).
(§3) As the indication of an acute GVHD model (1), use was made of the cytotoxic T cell activity of a donor on a host. As the indication of a chronic GVHD model (2), use was made of the blood antiDNA antibody titer.
In the transplantation, BDF1 mice (H-2b/d) and C57BL/6N mice (H-2b) were employed respectively as the hosts and donors. 5×10^7 /mouse of donors' spleen cells were transferred into the hosts via the tail vein. 4-{2-[5-(4,7-Dimethylbenzofuran-2-yl)pyrrolyl]}benzoic acid (compound A) was suspended in a 0.5% aqueous solution of methylcellulose and then orally administered to the hosts once a day from the first day of the cell transfer to the day before the measurement of the cytotoxic T cell activity. The 0.5% aqueous solution of methylcellulose alone was similarly administered to the control group. 12 to 13 days after the cell transfer, the spleen of each host animal was taken out and a suspension of the spleen cells to be used as effector cells was prepared. As the target cells, use was made of P-815(H-2d) which were cultured together with the effector cells for 4 hours. The cytotoxicity (%) was expressed as the percentage of ^51 Cr liberated into the culture supernatant during this culture time to the total radioactivity.

Data set [9] relates to serum antiDNA antibody titer (IgG class). The data set is described as follows: Chronic GVHD model: serum antiDNA antibody titer (ELISA). Particulars: oral, once a day, two weeks after cell transfer. The data set is classed as in vivo, mice (BDF1 hosts, DBA/2 donors).
Description: as §2, §3
In the transplantation, BDF1 mice (H-2b/d) and DBA/2 mice (H-2d) were employed respectively as the hosts and donors. 5×10^7 /mouse of donors' spleen cells were transferred into the hosts via the tail vein. 4-{2-[5-(4,7-Dimethylbenzofuran-2-yl)pyrrolyl]}benzoic acid was dissolved in a 0.5% aqueous solution of methylcellulose and then orally administered to the hosts once a day from the first day of the cell transfer to the day before the blood sampling. The 0.5% aqueous solution of methylcellulose alone was similarly administered to the control group. Two weeks after the cell transfer, the blood of each host animal was sampled and the serum antiDNA antibody titer (IgG class) was measured by the ELISA method.

The test system of data set [10] is rat adjuvant arthritis. Particulars: Science 221, 756, 1983; cited from earlier work.

On to `Cn1cnc([N+](=O)[O-])c1Sc1ncnc2nc[nH]c12` [azathioprine], for which, in data set [1], the side effects result is “bone marrow depression, hepatic disorder, pancreatitis, digestive tract symptoms, cardiopalmus and respiratory disorder”.

Turning to `Cc1ccc(C)c2c(F)c(-c3ccc(-c4ccc(C(=O)O)cc4)[nH]3)oc12`, the “Transcriptional promotion activity, Relative ED30, RAR-α” value in data set [2] is 0.39. Moreover, the “Transcriptional promotion activity, Relative ED30, RAR-β” value in data set [3] was determined as 2.8. Besides, the “Transcriptional promotion activity, Relative ED30, RAR-γ” value in [4] is 31.

For the compound `O=C(O)c1ccc(-c2ccc(-c3cc4c(Cl)ccc(Cl)c4o3)[nH]2)cc1` [drawing 15], in [2], the “Transcriptional promotion activity, Relative ED30, RAR-α” value is recorded as 1.0. Besides, in data set [3], the “Transcriptional promotion activity, Relative ED30, RAR-β” value turned out to be 160. Further, in data set [4], the “Transcriptional promotion activity, Relative ED30, RAR-γ” value is given as 1400.

As to `Cc1ccc(C)c2oc(-c3ccc(-c4ccc(C(=O)O)cc4)[nH]3)cc12` [drawing 14], the “Transcriptional promotion activity, Relative ED30, RAR-α” value in data set [2] is recorded as 0.4. For the same compound, in [3], the “Transcriptional promotion activity, Relative ED30, RAR-β” value was determined as 13. The “Transcriptional promotion activity, Relative ED30, RAR-γ” value in data set [4] came out at 191.

For `CN(Cc1cnc2nc(N)nc(N)c2n1)c1ccc(C(=O)N[C@@H](CCC(=O)O)C(=O)O)cc1` [methotrexate], the side effects entry in data set [1] is reported as “bone marrow depression, hepatic/renal function disorder, mucosal disorder, psychoneurosis, interstitial pneumonia, pulmonary fibrosis, etc”.

Regarding `O=C(O)c1ccc(-c2ccc(-c3cc4c(C(F)(F)F)ccc(F)c4o3)[nH]2)cc1`, the “Transcriptional promotion activity, Relative ED30, RAR-α” value in data set [2] came to 0.33. In data set [3], the “Transcriptional promotion activity, Relative ED30, RAR-β” value was found to be 8.1. Also, the “Transcriptional promotion activity, Relative ED30, RAR-γ” value in data set [4] came out at 95.

Turning to `CC1=C(/C=C/C(C)=C/C=C/C(C)=C/C(=O)O)C(C)(C)CCC1` [retinoic acid], the “effect on the immune system” value in data set [5] is listed as “suppressive effect on the immune system”.

Regarding `O=C(O)c1ccc(-c2ccc(-c3cc4c(F)ccc(Cl)c4o3)[nH]2)cc1`, the “Transcriptional promotion activity, Relative ED30, RAR-α” value in data set [2] was 0.33. Besides, the “Transcriptional promotion activity, Relative ED30, RAR-β” value in data set [3] amounted to 91. The “Transcriptional promotion activity, Relative ED30, RAR-γ” value in data set [4] turned out to be 790.

On to `C[C@]12C=CC(=O)C=C1CC[C@@H]1[C@@H]2[C@@H](O)C[C@@]2(C)[C@H]1CC[C@]2(O)C(=O)CO` [prednisolone], for which the “effect on chronic GVHD” value in data set [6] was “no satisfactory effect”. Besides, in data set [1], the side effects entry is “induced infectious diseases, peptic ulcer, etc”.

In data set [7], `O=C(O)c1ccc(-c2ccc(-c3cc4c(Cl)ccc(Cl)c4o3)[nH]2)cc1` [drawing 8] returned an IC50 of 500 nM.

Regarding `CC1(C)CCC(C)(C)c2nc(-c3ccc(-c4ccc(C(=O)O)cc4)[nH]3)cnc21`, the “Transcriptional promotion activity, Relative ED30, RAR-α” value in data set [2] is listed as 0.21. The “Transcriptional promotion activity, Relative ED30, RAR-β” value in data set [3] is reported as 1.4. For the same compound, the “Transcriptional promotion activity, Relative ED30, RAR-γ” value in [4] is on record as 19.

On to `Cc1ccc(C)c2oc(-c3ccc(-c4ccc(C(=O)O)cc4)[nH]3)cc12` [compound A, 4-{2-[5-(4,7-Dimethylbenzofuran-2-yl)pyrrolyl]}benzoic acid], for which the minimal effective dose was at least 0.1 mg/kg in data set [8] (Mus musculus, P815, read-out: dose from which induction of the cytotoxic T cell activity was inhibited dose-dependently) and at least 0.3 mg/kg in data set [9] (Mus musculus, 336 h, read-out: dose from which serum antiDNA antibody titer was inhibited dose-dependently). Besides, in data set [8], the “induction of the cytotoxic T cell activity” value was “strongly inhibited the induction of the cytotoxic T cell activity dose-dependently”. The “serum antiDNA antibody titer” value in [9] is recorded as “strongly inhibited the serum antiDNA antibody titer dose-dependently”.

On to `CC1=C(/C=C/C(C)=C/C=C/C(C)=C\C(=O)O)C(C)(C)CCC1` [13-cis-retinoic acid], for which the “secondary inflammation in rat adjuvant arthritis” value in data set [10] is given as “significantly suppressed”.

For `C=CC[C@@H]1/C=C(\C)C[C@H](C)C[C@H](OC)[C@H]2O[C@@](O)(C(=O)C(=O)N3CCCC[C@H]3C(=O)O[C@H](/C(C)=C/[C@@H]3CC[C@@H](O)[C@H](OC)C3)[C@H](C)[C@@H](O)CC1=O)[C@H](C)C[C@@H]2OC` [tacrolimus (FK 506), tacrolimus], in data set [1], the side effects result is “renal function disorder, shock, elevation of blood pressure, heart failure, pancreatitis,hemolytic-uremic syndrome, thrombotic thrombopenia, purpura and hyperglycemia”.

As for `CCc1ccc(C)c2cc(-c3ccc(-c4ccc(C(=O)O)cc4)[nH]3)oc12`, the “Transcriptional promotion activity, Relative ED30, RAR-α” value in data set [2] was 0.26. In addition, the “Transcriptional promotion activity, Relative ED30, RAR-β” value in [3] is reported as 24. The “Transcriptional promotion activity, Relative ED30, RAR-γ” value in data set [4] came out at 120.

In general, IC50 refers to the midpoint of a concentration-inhibition curve. The low end stands for higher potency, the high end for lower potency.
